Each molecule was assayed on Human gammaherpesvirus 8 (assay: Inhibition of Kaposi's sarcoma-associated herpesvirus His-tagged oligomerization-deficient LANA DBD mutant (1008 to 1146 residues) assessed as disruption of LANA-DNA interaction at 250 uM preincubated with LBS1 representing 5'-Dy682-labeled double stranded DNA probe as substrate for 30 mins followed by compound addition and measured after 30 mins by Electrophoretic mobility shift assay). Conditions: not given.
In the case of `COc1cccc(-c2cc(C)c(-n3cc(-c4ccc(C(=O)O)cc4)nn3)cn2)c1`, the inhibition is reported as less than 10%.
`Cc1cc(-c2ccccc2)ncc1-n1cc(-c2ccc(C(=O)O)cc2)nn1` gave an inhibition of less than 10%.
For `Cc1cc(-c2cccc(Cl)c2)ncc1-n1cc(-c2ccc(C(=O)O)cc2)nn1`, the inhibition was less than 10%.
Molecule `COc1ccc(-c2cc(C)c(-n3cc(-c4ccc(C(=O)O)cc4)nn3)cn2)cn1` has an inhibition of less than 10%.
Molecule `Cc1cc(-c2cccc(C(=O)O)c2)ncc1-n1cc(-c2ccc(C(=O)O)cc2)nn1` has an inhibition of less than 10%.

What follows are molecules tested on Human gammaherpesvirus 8 (assay: Antiviral activity against Kaposi's sarcoma-associated herpesvirus infected in human HEK293 cells transfected with KSHV pGTR4:73 with four terminal repeats and LANA expression cassette containing plasmid assessed as inhibition of LANA-mediated replication of viral latent replication origin TR sequence at 15.625 to 62.5 uM incubated for 3 days by Southern blot analysis). Conditions: dose 15.625-62.5 µM, time 3.0 day.
Format: functional, organism-based
`COc1ccc(-c2cc(C)c(-n3cc(-c4ccc(C(=O)O)cc4)nn3)cn2)c(Cl)c1` was tested, and the Activity was “Dose-Dependent Effect”.
